How the values were obtained:
Type in all cases: cell-based
[1] = target: T1, human muscarinic M3 receptor (Homo sapiens, UniProt P20309); assay: Alphascreen Surefire phospho-ERK1/2 functional assay, CHO cells expressing M3; settings: for Emax: CHO, read-out: % Emax cf. ACh, M3; for EC50: agonist, CHO cells, phospho-ERK1/2, read-out: pEC50 M3 (converted)
T1 construct: expressed in transfected cells
Description: (§1) ERK1/2 phosphorylation is a downstream consequence of both Gq/11 and Gi/o protein coupled receptor activation, making it highly suitable for the assessment of M1, M3 (Gq/11 coupled) and M2, M4 receptors (Gi/o coupled), rather than using different assay formats for different receptor subtypes. CHO cells stably expressing the human muscarinic M1, M2, M3 or M4 receptor were plated (25K/well) onto 96-well tissue culture plates in MEM-alpha+10% dialysed FBS. Once adhered, cells were serum-starved overnight. Agonist stimulation was performed by the addition of 5 μL agonist to the cells for 5 min (37° C.). Media was removed and 50 μL of lysis buffer added. After 15 min, a 4 μL sample was transferred to 384-well plate and 7 μL of detection mixture added.

[2] = target: T2, human muscarinic M4 receptor (Homo sapiens, UniProt P08173); assay: Alphascreen Surefire phospho-ERK1/2 functional assay, CHO cells expressing M4; settings: for Emax: CHO, read-out: % Emax cf. ACh, M4; for EC50: agonist, CHO cells, phospho-ERK1/2, read-out: pEC50 M4 (converted)
T2 construct: expressed in transfected cells
T2 sequence (P08173 1-479): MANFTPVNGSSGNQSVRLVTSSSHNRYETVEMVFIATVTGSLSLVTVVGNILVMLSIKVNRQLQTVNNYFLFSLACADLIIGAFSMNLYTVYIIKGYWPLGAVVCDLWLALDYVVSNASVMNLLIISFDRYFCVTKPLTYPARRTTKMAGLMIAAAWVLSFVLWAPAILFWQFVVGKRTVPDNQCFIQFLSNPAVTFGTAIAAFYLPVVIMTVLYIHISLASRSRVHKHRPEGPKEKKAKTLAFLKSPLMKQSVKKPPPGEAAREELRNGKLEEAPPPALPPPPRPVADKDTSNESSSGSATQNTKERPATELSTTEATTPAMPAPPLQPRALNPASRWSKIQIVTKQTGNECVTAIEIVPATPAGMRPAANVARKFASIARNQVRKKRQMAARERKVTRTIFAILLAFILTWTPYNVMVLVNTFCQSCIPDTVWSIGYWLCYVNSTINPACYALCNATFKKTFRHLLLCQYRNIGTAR
Description: as §1

[3] = target: T3, human muscarinic M1 receptor (Homo sapiens, UniProt P11229); assay: Alphascreen Surefire phospho-ERK1/2 functional assay, CHO cells expressing M1; settings: for Emax: CHO, read-out: % Emax cf. ACh, M1; for EC50: agonist, CHO cells, phospho-ERK1/2, read-out: pEC50 M1 (converted)
T3 construct: expressed in transfected cells
T3 sequence (P11229 1-460): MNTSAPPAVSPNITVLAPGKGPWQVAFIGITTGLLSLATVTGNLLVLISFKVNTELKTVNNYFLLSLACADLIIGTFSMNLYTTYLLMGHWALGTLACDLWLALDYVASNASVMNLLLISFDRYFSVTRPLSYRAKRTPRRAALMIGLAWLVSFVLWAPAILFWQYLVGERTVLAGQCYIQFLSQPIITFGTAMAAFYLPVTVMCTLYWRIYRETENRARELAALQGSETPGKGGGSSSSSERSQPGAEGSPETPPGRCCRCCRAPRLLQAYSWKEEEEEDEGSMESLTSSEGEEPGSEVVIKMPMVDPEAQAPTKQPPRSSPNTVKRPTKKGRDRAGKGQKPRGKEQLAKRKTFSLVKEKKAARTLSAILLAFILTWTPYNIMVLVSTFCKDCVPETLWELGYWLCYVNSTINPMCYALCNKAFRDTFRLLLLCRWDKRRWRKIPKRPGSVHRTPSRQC
Description: as §1

[4] = target: T4, human muscarinic M2 receptor (Homo sapiens, UniProt P08172); assay: Alphascreen Surefire phospho-ERK1/2 functional assay, CHO cells expressing M2; settings: for Emax: CHO, read-out: % Emax cf. ACh, M2; for EC50: agonist, CHO cells, phospho-ERK1/2, read-out: pEC50 M2 (converted)
T4 construct: expressed in transfected cells
T4 sequence (P08172 1-466): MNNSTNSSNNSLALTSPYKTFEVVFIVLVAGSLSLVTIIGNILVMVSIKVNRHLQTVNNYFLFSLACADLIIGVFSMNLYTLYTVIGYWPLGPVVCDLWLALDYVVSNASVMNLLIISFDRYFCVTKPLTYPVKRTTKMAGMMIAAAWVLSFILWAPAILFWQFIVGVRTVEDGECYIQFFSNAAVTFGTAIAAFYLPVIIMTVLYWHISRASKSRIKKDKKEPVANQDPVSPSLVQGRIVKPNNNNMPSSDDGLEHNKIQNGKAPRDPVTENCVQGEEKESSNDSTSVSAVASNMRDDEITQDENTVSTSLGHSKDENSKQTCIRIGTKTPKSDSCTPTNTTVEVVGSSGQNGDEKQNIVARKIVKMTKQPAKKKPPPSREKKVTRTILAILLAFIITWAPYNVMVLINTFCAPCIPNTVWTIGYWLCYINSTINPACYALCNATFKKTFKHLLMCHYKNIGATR
Description: as §1

T1 sequence (P20309 whole entry): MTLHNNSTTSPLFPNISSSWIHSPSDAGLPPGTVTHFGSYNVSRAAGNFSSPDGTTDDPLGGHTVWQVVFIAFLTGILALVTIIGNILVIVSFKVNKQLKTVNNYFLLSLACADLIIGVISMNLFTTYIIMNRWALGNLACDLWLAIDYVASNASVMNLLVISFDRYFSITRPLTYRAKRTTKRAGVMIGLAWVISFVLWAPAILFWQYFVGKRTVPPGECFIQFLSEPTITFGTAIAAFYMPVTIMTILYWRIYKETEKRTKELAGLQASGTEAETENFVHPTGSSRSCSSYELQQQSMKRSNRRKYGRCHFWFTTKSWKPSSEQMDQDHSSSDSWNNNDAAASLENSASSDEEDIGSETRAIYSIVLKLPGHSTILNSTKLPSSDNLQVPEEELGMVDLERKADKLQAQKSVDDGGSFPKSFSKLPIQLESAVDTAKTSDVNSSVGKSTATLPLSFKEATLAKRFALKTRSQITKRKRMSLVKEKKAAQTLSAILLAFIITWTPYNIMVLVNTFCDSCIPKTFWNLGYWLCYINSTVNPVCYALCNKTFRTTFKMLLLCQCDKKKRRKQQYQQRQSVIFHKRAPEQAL

| Emax [1] | EC50 [1] | Emax [2] | EC50 [2] | Emax [3] | EC50 [3] | Emax [4] | EC50 [4] | SMILES |
| --- | --- | --- | --- | --- | --- | --- | --- | --- |
| 16% | > 20000 nM | 105% | 12.6 nM | 67% | 631 nM | 4% | > 20000 nM | CCOC(=O)N1CC2(CC(N3CCC(N4CCC[C@@H]4c4cnco4)CC3)C2)C1 [Example 1-6] |
| 6% | > 20000 nM | 49% | 39.8 nM | 12% | > 20000 nM | 10% | > 20000 nM | CCOC(=O)N1CC2(CC(N3CCC(N4CCC[C@@H]4c4cn(C)c(=O)o4)CC3)C2)C1 [Example 1-7, Ethyl 6-{4-[(2R)-2-(3-methyl-2-oxo-2,3-dihydro-1 ,3-oxazol-5yl)pyrrolidin-1-yl]piperidin-1-yl}-2-azaspiro[3.3]heptane-2-carboxylate] |
| 11% | > 20000 nM | 88% | 31.6 nM | 63% | 251 nM | 7% | > 20000 nM | CCOC(=O)N1CC2(CC(N3CCC(N4CC(F)(F)C[C@@H]4CO)CC3)C2)C1 [Example 1-12, Ethyl 6-{4-[(2R)-4,4-difluoro-2-(hydroxymethyl)pyrrolidin-1-yl]piperidin-1-yl}-2-azaspiro[3.3]heptane-2-carboxylate] |

Reference: US11324738B2, “Muscarinic agonists” (Heptares Therapeutics Limited, priority 2015, dated 2022)
